Data published in US8192962B2, “Processes for detecting toxic substances” (Daikin Industries, Ltd., priority 2001, dated 2012).

Test system: Metabolism protein genes
Experiment: DNA chip mRNA expression in yeast, metabolism protein genes (Table 7)
Format: cell-based, Saccharomyces cerevisiae S288C
Protocol: Yeast (Saccharomyces cerevisiae S288C (α SUC2mal mel gap2 CUP1)) were incubated at 25° C. on YPD medium (yeast extract 1%, polypepton 2%, glucose 2%). One of toxic chemical substances was added to the cells at logarithmic growth phase, and the cells were further incubated for two hours. Cells were cultured without any chemical substance in the same condition, and were used as control. Concentrations of the chemical substances were defined to inhibit the growth of the yeast but not lead to death.
After completion of the incubation, the culture was centrifuged to collect the cells. To the cells, sodium acetate buffer (50 mM sodium acetate, 10 mM EDTA, 1% SDS) was added, and the mixture was shaken at 65° C. for five minutes, followed by returning to room temperature, and obtaining the supernatant, of which the procedures were repeated two times. To the supernatant, ½ amount of a solution of phenol/chloroform was added, and the mixture was centrifuged to give a supernatant, which was added with an equal amount of chloroform, and the mixture was centrifuged to give a supernatant. To the supernatant, an equal amount of isopropanol containing 0.3 M sodium acetate was added, and the mixture was allowed to stand at room temperature for 30 minutes, after which the mixture was centrifuged to give a sediment of the whole RNAs. Seventy % ethanol was added to the sediment, and the mixture was again centrifuged to give a sediment, which was then dried and dissolved in water. mRNA was isolated from the whole RNAs as followings. In view of the fact that a poly A chain is attached to the 3′ terminus of mRNA, a polynucleotide having a poly T structure which was immobilized on the surface of latex beads was used to trap the mRNA, and then the mRNA was washed and eluted with spine column (Oligotex-dT30<Super>mRNA Purification Kit, Takara). Reverse transcription of the mRNA was conducted with a reverse transcriptase (Super Script II Reverse Transcriptase; catalogue No. 18064-014, GibcoBRL) using fluorescence-labeled nucleotides to give cDNAs that were introduced with Cy3-dUTP or Cy5-dUTP during the reverse transcription.
The labeled cDNAs were dissolved in TE buffer (10mM Tris-HCl/1 mM EDTA, pH8.0), and the solution was dropped on the DNA chip containing the whole genes of yeast (DNA Chip Research Inc. Japan) so that the cDNAs were hybridized on the DNA chip at 65° C. for over 12 hours. The fluoresces intensity of the DNA chip was read with a scanner, and the ratio relative to the fluorescence intensity resulting from the absence of chemical substance was estimated as the following, which is shown in Tables 1 to 9: […]

O=[N+]([O-])c1cc[n+]([O-])c2ccccc12 [(5), 4-nitroquinolin-N-oxide]
The level of expressed mRNA in the presence of chemical substance/The level of expressed mRNA in the absence of chemical substance (yeast gene YJR148W): 0.6 | The level of expressed mRNA in the presence of chemical substance/The level of expressed mRNA in the absence of chemical substance (yeast gene YJR155W): 0.7 | The level of expressed mRNA in the presence of chemical substance/The level of expressed mRNA in the absence of chemical substance (yeast gene YKL035W): 0.8 | level of expressed mRNA in the presence/in the absence of chemical substance (yeast gene YKL060C): 1.6 | The level of expressed mRNA in the presence of chemical substance/The level of expressed mRNA in the absence of chemical substance (yeast gene YKL091C): 1.0 | The level of expressed mRNA in the presence of chemical substance/The level of expressed mRNA in the absence of chemical substance (yeast gene YKL104C): 1.4 | level of expressed mRNA in the presence/in the absence of chemical substance (yeast gene YKL148C): 0.8 | The level of expressed mRNA in the presence of chemical substance/The level of expressed mRNA in the absence of chemical substance (yeast gene YKL152C): 1.3 | level of expressed mRNA in the presence/in the absence of chemical substance (yeast gene YKL157W): 1.5 | The level of expressed mRNA in the presence of chemical substance/The level of expressed mRNA in the absence of chemical substance (yeast gene YKL213C): 0.7 | The level of expressed mRNA in the presence of chemical substance/The level of expressed mRNA in the absence of chemical substance (yeast gene YKL215C): 1.0 | level of expressed mRNA in the presence/in the absence of chemical substance (yeast gene YKR034W): 0.9 | The level of expressed mRNA in the presence of chemical substance/The level of expressed mRNA in the absence of chemical substance (yeast gene YKR039W): 1.0 | The level of expressed mRNA in the presence of chemical substance/The level of expressed mRNA in the absence of chemical substance (yeast gene YLL058W): 0.8 | level of expressed mRNA in the presence/in the absence of chemical substance (yeast gene YLR006C): 1.6 | level of expressed mRNA in the presence/in the absence of chemical substance (yeast gene YLR044C): 1.7 | level of expressed mRNA in the presence/in the absence of chemical substance (yeast gene YLR056W): 1.6 | level of expressed mRNA in the presence/in the absence of chemical substance (yeast gene YLR058C): 0.7 | level of expressed mRNA in the presence/in the absence of chemical substance (yeast gene YLR081W): 1.0 | level of expressed mRNA in the presence/in the absence of chemical substance (yeast gene YLR089C): 0.8 | The level of expressed mRNA in the presence of chemical substance/The level of expressed mRNA in the absence of chemical substance (yeast gene YLR180W): 0.8 | level of expressed mRNA in the presence/in the absence of chemical substance (yeast gene YLR284C): 1.6 | The level of expressed mRNA in the presence of chemical substance/The level of expressed mRNA in the absence of chemical substance (yeast gene YLR299W): 0.6 | The level of expressed mRNA in the presence of chemical substance/The level of expressed mRNA in the absence of chemical substance (yeast gene YLR300W): 0.8 | level of expressed mRNA in the presence/in the absence of chemical substance (yeast gene YLR304C): 0.6 | The level of expressed mRNA in the presence of chemical substance/The level of expressed mRNA in the absence of chemical substance (yeast gene YLR307W): 1.4 | The level of expressed mRNA in the presence of chemical substance/The level of expressed mRNA in the absence of chemical substance (yeast gene YLR348C): 0.9 | level of expressed mRNA in the presence/in the absence of chemical substance (yeast gene YLR354C): 1.6 | level of expressed mRNA in the presence/in the absence of chemical substance (yeast gene YLR372W): 1.4 | level of expressed mRNA in the presence/in the absence of chemical substance (yeast gene YML022W): 1.3 | The level of expressed mRNA in the presence of chemical substance/The level of expressed mRNA in the absence of chemical substance (yeast gene YML054C): 1.3 | The level of expressed mRNA in the presence of chemical substance/The level of expressed mRNA in the absence of chemical substance (yeast gene YML070W): 1.4 | The level of expressed mRNA in the presence of chemical substance/The level of expressed mRNA in the absence of chemical substance (yeast gene YML100W): 0.9 | The level of expressed mRNA in the presence of chemical substance/The level of expressed mRNA in the absence of chemical substance (yeast gene YMR008C): 1.1 | level of expressed mRNA in the presence/in the absence of chemical substance (yeast gene YMR011W): 0.9 | level of expressed mRNA in the presence/in the absence of chemical substance (yeast gene YMR015C): 1.7 | The level of expressed mRNA in the presence of chemical substance/The level of expressed mRNA in the absence of chemical substance (yeast gene YMR020W): 1.4 | level of expressed mRNA in the presence/in the absence of chemical substance (yeast gene YMR083W): 1.5 | The level of expressed mRNA in the presence of chemical substance/The level of expressed mRNA in the absence of chemical substance (yeast gene YMR105C): 0.9 | The level of expressed mRNA in the presence of chemical substance/The level of expressed mRNA in the absence of chemical substance (yeast gene YMR189W): 0.4 | level of expressed mRNA in the presence/in the absence of chemical substance (yeast gene YMR205C): 1.2 | level of expressed mRNA in the presence/in the absence of chemical substance (yeast gene YMR261C): 0.9 | The level of expressed mRNA in the presence of chemical substance/The level of expressed mRNA in the absence of chemical substance (yeast gene YMR271C): 1.1 | The level of expressed mRNA in the presence of chemical substance/The level of expressed mRNA in the absence of chemical substance (yeast gene YMR296C): 0.4 | level of expressed mRNA in the presence/in the absence of chemical substance (yeast gene YMR323W): 0.7 | The level of expressed mRNA in the presence of chemical substance/The level of expressed mRNA in the absence of chemical substance (yeast gene YNL012W): 1.3 | level of expressed mRNA in the presence/in the absence of chemical substance (yeast gene YNL025C): 0.7 | The level of expressed mRNA in the presence of chemical substance/The level of expressed mRNA in the absence of chemical substance (yeast gene YNL037C): 1.7 | The level of expressed mRNA in the presence of chemical substance/The level of expressed mRNA in the absence of chemical substance (yeast gene YNL045W): 1.1 | The level of expressed mRNA in the presence of chemical substance/The level of expressed mRNA in the absence of chemical substance (yeast gene YNL104C): 0.8 | The level of expressed mRNA in the presence of chemical substance/The level of expressed mRNA in the absence of chemical substance (yeast gene YNL106C): 0.8 | The level of expressed mRNA in the presence of chemical substance/The level of expressed mRNA in the absence of chemical substance (yeast gene YNL169C): 0.7 | level of expressed mRNA in the presence/in the absence of chemical substance (yeast gene YNL192W): 0.9 | The level of expressed mRNA in the presence of chemical substance/The level of expressed mRNA in the absence of chemical substance (yeast gene YNL231C): 2.1 | The level of expressed mRNA in the presence of chemical substance/The level of expressed mRNA in the absence of chemical substance (yeast gene YNL322C): 1.4 | The level of expressed mRNA in the presence of chemical substance/The level of expressed mRNA in the absence of chemical substance (yeast gene YNL331C): 1.6 | The level of expressed mRNA in the presence of chemical substance/The level of expressed mRNA in the absence of chemical substance (yeast gene YNL332W): 1.6 | The level of expressed mRNA in the presence of chemical substance/The level of expressed mRNA in the absence of chemical substance (yeast gene YNR002C): 1.2 | The level of expressed mRNA in the presence of chemical substance/The level of expressed mRNA in the absence of chemical substance (yeast gene YNR019W): 0.8 | The level of expressed mRNA in the presence of chemical substance/The level of expressed mRNA in the absence of chemical substance (yeast gene YNR033W): 1.3 | The level of expressed mRNA in the presence of chemical substance/The level of expressed mRNA in the absence of chemical substance (yeast gene YNR059W): 1.4 | The level of expressed mRNA in the presence of chemical substance/The level of expressed mRNA in the absence of chemical substance (yeast gene YOL058W): 1.2 | level of expressed mRNA in the presence/in the absence of chemical substance (yeast gene YOL086C): 1.9 | level of expressed mRNA in the presence/in the absence of chemical substance (yeast gene YOL108C): 2.1 | level of expressed mRNA in the presence/in the absence of chemical substance (yeast gene YOL116W): 1.7 | The level of expressed mRNA in the presence of chemical substance/The level of expressed mRNA in the absence of chemical substance (yeast gene YOL126C): 0.7 | The level of expressed mRNA in the presence of chemical substance/The level of expressed mRNA in the absence of chemical substance (yeast gene YOL153C): 1.2 | level of expressed mRNA in the presence/in the absence of chemical substance (yeast gene YOL156W): 1.2 | The level of expressed mRNA in the presence of chemical substance/The level of expressed mRNA in the absence of chemical substance (yeast gene YOL165C): 0.9 | level of expressed mRNA in the presence/in the absence of chemical substance (yeast gene YOR002W): 1.1 | level of expressed mRNA in the presence/in the absence of chemical substance (yeast gene YOR085W): 1.0 | The level of expressed mRNA in the presence of chemical substance/The level of expressed mRNA in the absence of chemical substance (yeast gene YOR099W): 1.5 | level of expressed mRNA in the presence/in the absence of chemical substance (yeast gene YOR103C): 1.5 | level of expressed mRNA in the presence/in the absence of chemical substance (yeast gene YOR108W): 1.1 | level of expressed mRNA in the presence/in the absence of chemical substance (yeast gene YOR128C): 1.1 | The level of expressed mRNA in the presence of chemical substance/The level of expressed mRNA in the absence of chemical substance (yeast gene YOR130C): 1.8 | level of expressed mRNA in the presence/in the absence of chemical substance (yeast gene YOR142W): 1.4 | level of expressed mRNA in the presence/in the absence of chemical substance (yeast gene YOR176W): 1.0 | level of expressed mRNA in the presence/in the absence of chemical substance (yeast gene YOR178C): 1.0 | level of expressed mRNA in the presence/in the absence of chemical substance (yeast gene YOR251C): 0.8 | The level of expressed mRNA in the presence of chemical substance/The level of expressed mRNA in the absence of chemical substance (yeast gene YOR336W): 1.3 | The level of expressed mRNA in the presence of chemical substance/The level of expressed mRNA in the absence of chemical substance (yeast gene YOR347C): 0.7 | level of expressed mRNA in the presence/in the absence of chemical substance (yeast gene YOR348C): 0.9 | The level of expressed mRNA in the presence of chemical substance/The level of expressed mRNA in the absence of chemical substance (yeast gene YPL017C): 1.3 | level of expressed mRNA in the presence/in the absence of chemical substance (yeast gene YPL028W): 1.0 | level of expressed mRNA in the presence/in the absence of chemical substance (yeast gene YPL057C): 1.9 | level of expressed mRNA in the presence/in the absence of chemical substance (yeast gene YPL135W): 1.6 | level of expressed mRNA in the presence/in the absence of chemical substance (yeast gene YPL148C): 1.1 | The level of expressed mRNA in the presence of chemical substance/The level of expressed mRNA in the absence of chemical substance (yeast gene YPR026W): 0.8 | level of expressed mRNA in the presence/in the absence of chemical substance (yeast gene YPR113W): 2.0 | level of expressed mRNA in the presence/in the absence of chemical substance (yeast gene YPR165W): 1.5 | The level of expressed mRNA in the presence of chemical substance/The level of expressed mRNA in the absence of chemical substance (yeast gene YPR167C): 1.4 | level of expressed mRNA in the presence/in the absence of chemical substance (yeast gene YPR183W): 0.9
